Measurements from patent publication US11759412B2, “Personal care compositions with glutathione precursor comprising 4-substituted resorcinols and amino acids” (Conopco, Inc., priority 2016, dated 2023).
Values belong to the molecule of their own block, whether it stands above or below them.

How the values were obtained:
Type in all cases: cell-based
[1] = molecular target: T1, tyrosinase in Human primary melanocytes (Homo sapiens, UniProt P14679); assay: Tyrosinase Activity Assay (in situ, melanocyte lysate, DOPA/MBTH); settings: Table 4, GAP where present: glutamine 32 uM, cystine 40 uM, glycine 129 uM, 72 hours
T1 construct: host or cells: Human primary melanocytes
T1 sequence (P14679 19-529): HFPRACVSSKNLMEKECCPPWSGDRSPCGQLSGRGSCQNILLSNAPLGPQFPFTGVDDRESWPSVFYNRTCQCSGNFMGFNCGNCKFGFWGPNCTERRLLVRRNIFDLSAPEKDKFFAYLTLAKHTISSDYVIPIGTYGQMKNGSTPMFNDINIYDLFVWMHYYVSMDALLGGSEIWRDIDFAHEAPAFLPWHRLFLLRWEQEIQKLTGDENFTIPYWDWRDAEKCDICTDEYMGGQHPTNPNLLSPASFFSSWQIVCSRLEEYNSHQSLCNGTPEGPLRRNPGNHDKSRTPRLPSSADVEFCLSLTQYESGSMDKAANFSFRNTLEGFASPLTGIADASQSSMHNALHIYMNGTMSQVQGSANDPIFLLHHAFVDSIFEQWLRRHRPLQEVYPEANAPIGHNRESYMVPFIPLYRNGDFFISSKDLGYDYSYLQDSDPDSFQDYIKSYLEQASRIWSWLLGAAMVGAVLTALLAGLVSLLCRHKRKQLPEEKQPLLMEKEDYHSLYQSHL
Method: Human primary melanocytes (Cascade Biologics, now ThermoFisher Scientific) were grown in melanocytes growth medium (MGM) with human melanocyte growth supplement (both media components from ThermoFisher Scientific). Melanocytes were seeded at 1×10^4 cells/well in a 96 wells plate and cultures left undisturbed for 24 hrs in a 5% CO2 humidified incubator at 37° C. At 24 hrs post-seeding, cells were treated with GAP amino acids (consisting of glutamine (32 uM), cystine (40 uM), glycine (129 uM)) alone or in combination with test reagents described above, and left undisturbed for another 72 hours. Subsequently, cell viability was assessed and the cells were then lysed and progressed for determination of in situ tyrosinase activity. Cultures were rinsed twice with 1× phosphate-buffered saline and lysed with 40 uL of 0.5% TritonX 100 for 1 hour on an ice bed. In situ tyrosinase activity was visualized by addition of 60 μl of 50 mM potassium phosphate buffer (pH 6.8) containing 2 mM DOPA (3,4 dihydroxy phenylalanine) and 4 mM MBTH reagent (3-Methyl-2-Benzothiazolinone hydrazone hydrochloride) for 1 hour at 37° C. The reaction was stopped by the addition of 100 uL of ice-cold 10% tricholoracetic acid and then centrifuged at approximately 300 g for 10 minutes at 4° C. The soluble supernatant was separated from the pellet and the optical density read in a TECAN plate-reader (540 nm filter). The spectrophotometric optical density at 540 nm for untreated cells (no active) is considered as 100% tyrosinase activity. Tyrosinase activity is expressed after correction for cell numbers (activity/viability) and represented as % control.

Aged Human Keratinocytes = assay: Glutathione Assay (total glutathione, GSH-GSSG Glo, menadione challenge); settings: for synergistic increase in GSH synthesis, combination with GAP amino acids vs either alone: resorcinol/test reagent combined with GAP, + menadione
Method: Aged Human Keratinocytes (Cascade Biologics, now ThermoFisher Scientific, Waltham, Mass.) were maintained in Epi Life® medium containing 60 uM calcium chloride and 1% Human Keratinocyte Growth Supplement (both media components from ThermoFisher Scientific) in a humidified incubator with an atmosphere containing 5% CO2 at 37° C. The medium was refreshed every 2-3 days. Subsequently, cells were trypsinized at 90% confluency and seeded at a density of 1×10^4 per well into 96-well plates with white wall and clear bottom. One or two days after seeding, cell medium was replaced with Hank's Balanced Salt Solution (HBSS), and keratinocytes were pre-treated with GAP (or 0.12-0.240 mM sodium hydroxide vehicle control, pH 7.5) alone or in combination with additional test reagents described above or L-cystine esters alone for 1-2 hours. The concentration of all amino acids constituting the GAP mixture used in this assay are designated in the data tables, and fully described in the abbreviations list below.
After one or two hours of pre-treatment with GAP or additional test reagents, alone or in combination, keratinocytes were then challenged with 25 uM menadione (Sigma-Aldrich), a known inducer of oxidative stress. After 18-20 hours, cells were harvested and analyzed for total glutathione levels using a commercially available kit (GSH-GSSG GLo Assay, Promega), a luminescence-based system for the detection and quantification of total glutathione in cultured cells. In summary, after cell treatment, the media was removed and replaced with a cell lysis reagent for 5 minutes at 20-25° C.; note, all remaining steps were also conducted at 20-25° C. Next, a luciferase generation reagent was added to each well and incubated for 30 minutes. Following this step, a luciferin detection reagent was added to each well and plates were incubated for 15 minutes. Finally, plates were then read for luminescence in a FlexStation 3 plate reader (Molecular Devices). Total glutathione levels were calculated after interpolation of glutathione concentrations from a standard curve. Experimental conditions were typically conducted in at least triplicate determinations. Statistical significance was calculated using 1-way ANOVA. Percent protection was calculated by using the calculated glutathione levels from each experiment in the following equation: […]

Human Keratinocytes [2] = assay: Cell Viability Assay (CCK-8, menadione); settings: for Cell viability (% of vehicle of control): Table 2H; for % Protection (improvement vs vehicle control + menadione), cell viability / Cell viability (% of control): Table 2D
Method: Human Keratinocytes (Promocell, Heidelberg, Germany) were maintained in EpiLife® keratinocyte medium containing 60 uM calcium chloride and 1% Human Keratinocyte Growth Supplement (HKGS). The medium was refreshed every other day. Subsequently, cells were trypsinized at 90% confluency and seeded at a density of 2×10^4 per well into 96-well transparent tissue culture plates. On the second day after seeding, cell medium was replaced with treatments as described above in ROS assay section. After 18 hours, […] (CCK-8) reagent (Dojindo, Kumamoto, Japan) was diluted 1:10 in HBSS and incubated with cells for 4 h at 37° C. in a humidified incubator. Optical absorption at 450 nm was measured using a Tecan Safire2 plate reader. Relative viability was calculated with normalization based on the vehicle control treatment, which was set to 100%.
Where indicated, percent protection was calculated as a comparison to menadione alone treatment, using the measured relative absorbance units in the following equation: […]

Human Keratinocytes [3] = assay: Reactive Oxygen Species (ROS) Assay (CellROX green, menadione); settings: for synergistic decrease in ROS production, combination with GAP amino acids vs either alone: resorcinol/test reagent combined with GAP, + menadione
Method: Human Keratinocytes (Promocell, Heidelberg, Germany) were maintained in EpiLife® keratinocyte medium containing 60 uM calcium chloride and 1% Human Keratinocyte Growth Supplement (HKGS) in a humidified incubator with an atmosphere containing 5% CO2 at 37° C. The medium was refreshed every other day. Subsequently, cells were trypsinized at 90% confluency and seeded at a density of 1-2×10^4 per well into 96-well plates with black wall and clear bottom. On the second day after seeding, cell medium was replaced with Hank's Balanced Salt Solution (HBSS) with or without menadione (10-25 uM), GAP (typically at 49 uM pyroglutamic acid, 60 uM cystine, 194 uM glycine), GAP vehicle (0.2 mM NaOH, pH 7.5), above-described additional test reagents, or combinations of GAP with additional test reagents or L-cystine esters alone, and incubated for additional 18 hours. For ROS detection, CellROX green (Life Tech, Thermo Fisher Scientific, Rockford, USA) reagent was added into each well to a final concentration of 15-25 uM and incubated for additional 2-4 hours at 37° C. in a humidified incubator. The ROS fluorescence was detected using a Tecan microplate reader (Excitation/Emission=490/525). Relative ROS production was calculated with normalization based on the vehicle control treatment which was set to 100%. Where indicated, percent protection was calculated as a comparison to menadione alone treatment, using the measured relative fluorescent units in the following equation: […]
ROS levels were evaluated together with cell viability because it is possible to get a false negative for ROS if treatment is so toxic, that at the time of assay, cells are dead (and there are no longer any detectable ROS). Decrease in ROS levels is meaningful if cells are still viable.

[4] = Table 1A, HR 20 uM where present, + menadione 25 uM

- inhibition at 5 µM ([1]; resorcinol (HR or ER) 5 uM): 67%
- inhibition at 10 µM ([1]; resorcinol (HR or ER) 10 uM): 68%
Structure (SMILES): CCc1ccc(O)cc1O [ER, 4-ethylresorcinol]
- % Protection (improvement vs. vehicle control + menadione) (Aged Human Keratinocytes; Table 2C, ER 40 uM + menadione): 0%
- Glutathione Synthesis, Mean (uM glutathione) (Aged Human Keratinocytes; Table 2C, ER 40 uM + menadione): 0.36 µM
- % Protection (improvement vs. vehicle control + menadione) (Aged Human Keratinocytes; Table 2C, ER 50 uM + menadione): −4%
- Glutathione Synthesis, Mean (uM glutathione) (Aged Human Keratinocytes; Table 2C, ER 50 uM + menadione): 0.25 µM
- % Protection (improvement vs. vehicle control + menadione) (Aged Human Keratinocytes; Table 2C, ER 60 uM + menadione): −1%
- Glutathione Synthesis, Mean (uM glutathione) (Aged Human Keratinocytes; Table 2C, ER 60 uM + menadione): 0.34 µM
- synergistic increase in GSH synthesis, combination with GAP amino acids vs either alone (Aged Human Keratinocytes): synergistic increase
- Cell viability (% of vehicle of control) (Human Keratinocytes [2]; ER 10 uM + menadione): 36.6%
- Cell viability (% of vehicle of control) (Human Keratinocytes [2]; ER 20 uM + menadione): 39.8%
- Mean ROS production (% of vehicle control) (Human Keratinocytes [3]; Table 2H, ER 10 uM + menadione): 287.5%
- Mean ROS production (% of vehicle control) (Human Keratinocytes [3]; Table 2H, ER 20 uM + menadione): 308.3%
- synergistic decrease in ROS production, combination with GAP amino acids vs either alone (Human Keratinocytes [3]): not observed

- Tyrosinase activity inhibition, Mean of % Inhibition ([1]; resorcinol (HR or ER) 5 uM): 63^1%
- Tyrosinase activity inhibition, Mean of % Inhibition ([1]; resorcinol (HR or ER) 10 uM): 71^1%
Structure (SMILES): CCCCCCc1ccc(O)cc1O [HR, 4-hexylresorcinol]
- % Protection (improvement vs. vehicle control + menadione) (Aged Human Keratinocytes; [4]): 22^1%
- Glutathione Synthesis, Mean (uM glutathione) (Aged Human Keratinocytes; [4]): 0.46^1 uM
- % Protection (improvement vs. vehicle control + menadione) (Aged Human Keratinocytes; Table 2A, HR 10 uM + menadione): 4%
- Glutathione Synthesis, Mean (uM glutathione) (Aged Human Keratinocytes; Table 2A, HR 10 uM + menadione): 0.24 µM
- % Protection (improvement vs. vehicle control + menadione) (Aged Human Keratinocytes; Table 2A, HR 20 uM + menadione): 5%
- Glutathione Synthesis, Mean (uM glutathione) (Aged Human Keratinocytes; Table 2A, HR 20 uM + menadione): 0.28 µM
- % Protection (improvement vs. vehicle control + menadione) (Aged Human Keratinocytes; Table 2A, HR 40 uM + menadione): 1%
- Glutathione Synthesis, Mean (uM glutathione) (Aged Human Keratinocytes; Table 2A, HR 40 uM + menadione): 0.19 µM
- % Protection (improvement vs. vehicle control + menadione) (Aged Human Keratinocytes; Table 2A, HR 60 uM + menadione): 0%
- Glutathione Synthesis, Mean (uM glutathione) (Aged Human Keratinocytes; Table 2A, HR 60 uM + menadione): 0.14 µM
- synergistic increase in GSH synthesis, combination with GAP amino acids vs either alone (Aged Human Keratinocytes): synergistic increase
- % Protection (improvement vs vehicle control + menadione), cell viability (Human Keratinocytes [2]; HR 10 uM + menadione): 18.85^3%
- Cell viability (% of control) (Human Keratinocytes [2]; HR 10 uM + menadione): 65.1^3%
- % Protection (improvement vs vehicle control + menadione), cell viability (Human Keratinocytes [2]; HR 20 uM + menadione): −79.00%
- Cell viability (% of control) (Human Keratinocytes [2]; HR 20 uM + menadione): 11.0%
- % protection (improvement vs vehicle control + menadione), ROS (Human Keratinocytes [3]; Table 2D, HR 10 uM + menadione): 69.6^3%
- Mean ROS production (% of vehicle control) (Human Keratinocytes [3]; Table 2D, HR 10 uM + menadione): 153.4^3%
- % protection (improvement vs vehicle control + menadione), ROS (Human Keratinocytes [3]; Table 2D, HR 20 uM + menadione): 76.49^3%
- Mean ROS production (% of vehicle control) (Human Keratinocytes [3]; Table 2D, HR 20 uM + menadione): 118.7^3%
- synergistic decrease in ROS production, combination with GAP amino acids vs either alone (Human Keratinocytes [3]): synergistic decrease
